Reference: PubChem BioAssay (NCI)
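GI50 is the concentration that inhibits growth by half. Definition used: TGI = concentration required for complete inhibition of growth.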

Key:
Assay in all cases: NCI-60 cell line screen, 384-well format
[1] = test system: UO-31 renal
[2] = test system: SNB-75 CNS
[3] = test system: NCI-H23 lung
[4] = test system: CAKI-1 renal
[5] = test system: HL-60(TB) leukemia
[6] = test system: SF-539 CNS
[7] = test system: UACC-257 melanoma
[8] = test system: OVCAR-4 ovarian
[9] = test system: SK-OV-3 ovarian
[10] = test system: A549 NSCLC
[11] = test system: BT-549 breast
[12] = test system: OVCAR-8 ovarian
[13] = test system: U251 glioblastoma
[14] = test system: NCI-H226 lung
[15] = test system: KM12 colon
[16] = test system: SF-295 CNS
[17] = test system: HCT-116 colon
[18] = test system: MOLT-4 leukemia
[19] = test system: OVCAR-5 ovarian
[20] = test system: T-47D breast
[21] = test system: NCI-H460 NSCLC
[22] = test system: SK-MEL-5 melanoma
[23] = test system: NCI-H322M lung
[24] = test system: EKVX NSCLC
[25] = test system: COLO 205 colon
[26] = test system: MALME-3M melanoma
[27] = test system: TK-10 renal
[28] = test system: MDA-MB-231 breast
[29] = test system: IGROV1 ovarian
[30] = test system: 786-0 renal
[31] = test system: HOP-62 NSCLC
[32] = test system: M14 melanoma
[33] = test system: K-562 leukemia
[34] = test system: SF-268 CNS
[35] = test system: SNB-19 CNS
[36] = test system: HOP-92 NSCLC
[37] = test system: SW-620 colon
[38] = test system: SK-MEL-2 melanoma
[39] = test system: MCF7 breast
[40] = test system: RXF 393 renal
[41] = test system: DU-145 prostate
[42] = test system: SR leukemia
[43] = test system: MDA-MB-435 melanoma
[44] = test system: OVCAR-3 ovarian
[45] = test system: HS 578T breast
[46] = test system: SN12C renal
[47] = test system: NCI-H522 lung
[48] = test system: MDA-MB-468 breast
[49] = test system: UACC-62 melanoma
[50] = test system: SK-MEL-28 melanoma
[51] = test system: HCT-15 colon
[52] = test system: PC-3 prostate
[53] = test system: HT29 colon
[54] = test system: LOX IMVI melanoma
[55] = test system: ACHN renal
[56] = test system: CCRF-CEM leukemia
[57] = test system: HCC-2998 colon
[58] = test system: NCI/ADR-RES ovarian
[59] = test system: A498 renal
[60] = test system: RPMI-8226 leukemia

For `C=CCn1c(=O)c2cnc(Nc3ccc(N4CCN(C)CC4)cc3)nc2n1-c1ccc2c(n1)[C@@](O)(CC)CC2`, the GI50 [1] was 0.307 µM, the TGI [1] was 1.44 µM and the GI50 [2] was 1.07 µM. It also gave a TGI [2] of 8.16 µM, a GI50 [3] of 0.0785 µM and a TGI [3] of 0.257 µM. For the same compound, the GI50 [4] was 0.0644 µM, the TGI [4] was 12.7 µM and the GI50 [5] was 0.11 µM. It also gave a TGI [5] of 0.233 µM, a GI50 [6] of 0.0495 µM and a TGI [6] of 0.194 µM. For the same compound, the GI50 [7] was 1.95 µM, the TGI [7] was 11.3 µM and the GI50 [8] was 0.196 µM. The TGI [8] was 1.04 µM, the GI50 [9] was 0.174 µM and the TGI [9] was 1.57 µM. It also gave a GI50 [10] of 1.83 µM, a TGI [10] of 12.3 µM and a GI50 [11] of 0.137 µM. The TGI [11] was 0.348 µM, the GI50 [12] was 0.288 µM and the TGI [12] was 1.05 µM. The GI50 [13] was 0.497 µM, the TGI [13] was 11.4 µM and the GI50 [14] was 1.02 µM. For the same compound, the TGI [14] was 5.55 µM, the GI50 [15] was 1.13 µM and the TGI [15] was 7.26 µM. The GI50 [16] was 0.348 µM, the TGI [16] was 3.54 µM and the GI50 [17] was 0.268 µM. It also gave a TGI [17] of 8.68 µM, a GI50 [18] of 0.0305 µM and a TGI [18] of 0.121 µM. For the same compound, the GI50 [19] was 0.92 µM, the TGI [19] was 14.4 µM and the GI50 [20] was 5.81 µM. It also gave a TGI [20] of 21.8 µM, a GI50 [21] of 0.139 µM and a TGI [21] of 0.806 µM. It also gave a GI50 [22] of 0.172 µM, a TGI [22] of 0.453 µM and a GI50 [23] of 0.206 µM. The TGI [23] was 2.03 µM, the GI50 [24] was 0.324 µM and the TGI [24] was 2.51 µM. It also gave a GI50 [25] of 0.349 µM, a TGI [25] of 2.02 µM and a GI50 [26] of 0.101 µM. It also gave a TGI [26] of 0.484 µM, a GI50 [27] of 0.16 µM and a TGI [27] of 1.56 µM. The GI50 [28] was 0.395 µM, the TGI [28] was 10.1 µM and the GI50 [29] was 0.0953 µM. For the same compound, the TGI [29] was 1.35 µM, the GI50 [30] was 0.243 µM and the TGI [30] was 0.964 µM. It also gave a GI50 [31] of 0.401 µM, a TGI [31] of 2.15 µM and a GI50 [32] of 0.0584 µM. The TGI [32] was 0.863 µM, the GI50 [33] was 0.165 µM and the TGI [33] was 0.354 µM. It also gave a GI50 [34] of 0.689 µM, a TGI [34] of 13.8 µM and a GI50 [35] of 1.35 µM. For the same compound, the TGI [35] was > 100 µM, the GI50 [36] was 0.13 µM and the TGI [36] was 13.4 µM. It also gave a GI50 [37] of 0.28 µM, a TGI [37] of 1.95 µM and a GI50 [38] of 0.124 µM. The TGI [38] was 0.352 µM, the GI50 [39] was 0.218 µM and the TGI [39] was 2.19 µM. It also gave a GI50 [40] of 0.026 µM, a TGI [40] of 0.106 µM and a GI50 [41] of 0.241 µM. It also gave a TGI [41] of 3.89 µM, a GI50 [42] of 0.103 µM and a TGI [42] of 0.224 µM. It also gave a GI50 [43] of 0.16 µM, a TGI [43] of 0.374 µM and a GI50 [44] of 0.126 µM. It also gave a TGI [44] of 0.371 µM, a GI50 [45] of 0.083 µM and a TGI [45] of 0.445 µM. For the same compound, the GI50 [46] was 0.328 µM, the TGI [46] was 3.89 µM and the GI50 [47] was 0.13 µM. It also gave a TGI [47] of 0.286 µM, a GI50 [48] of 0.12 µM and a TGI [48] of 0.349 µM. The GI50 [49] was 0.371 µM, the TGI [49] was 14.7 µM and the GI50 [50] was 2.88 µM. It also gave a TGI [50] of 14.3 µM, a GI50 [51] of 0.44 µM and a TGI [51] of 1.8 µM. For the same compound, the GI50 [52] was 1.04 µM, the TGI [52] was 20.3 µM and the GI50 [53] was 0.211 µM. The TGI [53] was 0.536 µM.

`COc1ccc2c(c1)[C@]1(C[C@H]1c1ccc3c(/C=C/c4ccc(CN5C[C@@H](C)O[C@@H](C)C5)cc4)n[nH]c3c1)C(=O)N2` gave a GI50 [1] of 4.2 µM, a TGI [1] of 68.1 µM and a GI50 [2] of 1.73 µM. The TGI [2] was 4.27 µM, the GI50 [3] was 1.67 µM and the TGI [3] was 4.27 µM. For the same compound, the GI50 [4] was 3.6 µM, the TGI [4] was > 100 µM and the GI50 [6] was 1.3 µM. It also gave a TGI [6] of 2.64 µM, a GI50 [7] of 2.64 µM and a TGI [7] of 8.98 µM. For the same compound, the GI50 [54] was 1.65 µM, the TGI [54] was 3.64 µM and the GI50 [8] was 5.15 µM. It also gave a TGI [8] of 28 µM, a GI50 [55] of 2.73 µM and a TGI [55] of 16.8 µM. For the same compound, the GI50 [56] was < 0.01 µM, the GI50 [9] was 3.29 µM and the TGI [9] was 33.5 µM. For the same compound, the GI50 [10] was 1.19 µM, the TGI [10] was 32.2 µM and the GI50 [11] was 1.68 µM. It also gave a TGI [11] of 3.22 µM, a GI50 [12] of 2.3 µM and a TGI [12] of 9.75 µM. The GI50 [13] was 2.34 µM, the TGI [13] was 6.9 µM and the GI50 [14] was 1.25 µM. It also gave a TGI [14] of 14.2 µM, a GI50 [57] of 2.73 µM and a TGI [57] of 5.41 µM. It also gave a GI50 [15] of 0.0171 µM, a TGI [15] of 1.68 µM and a GI50 [16] of 2.74 µM. The TGI [16] was 15.1 µM, the GI50 [17] was 1.56 µM and the TGI [17] was 6.47 µM. The GI50 [19] was 4.13 µM, the TGI [19] was 64.5 µM and the GI50 [20] was 2.07 µM. The TGI [20] was 5.25 µM, the GI50 [21] was < 0.01 µM and the TGI [21] was 2.02 µM. The GI50 [58] was 1.82 µM, the TGI [58] was 7.14 µM and the GI50 [22] was 1.5 µM. The TGI [22] was 2.85 µM, the GI50 [23] was 4.48 µM and the TGI [23] was > 100 µM. It also gave a GI50 [24] of 3.76 µM, a TGI [24] of 46.8 µM and a GI50 [26] of 1.26 µM. It also gave a TGI [26] of 2.64 µM, a GI50 [27] of 3.66 µM and a TGI [27] of 27.9 µM. The GI50 [28] was 3.05 µM, the TGI [28] was 10.4 µM and the GI50 [29] was 4.81 µM. For the same compound, the TGI [29] was > 100 µM, the GI50 [30] was 1.63 µM and the TGI [30] was 3.37 µM. It also gave a GI50 [31] of 1.07 µM, a TGI [31] of 3.32 µM and a GI50 [32] of 2.42 µM. For the same compound, the TGI [32] was 11.4 µM, the GI50 [33] was 0.219 µM and the TGI [33] was 0.896 µM. For the same compound, the GI50 [34] was < 0.01 µM, the TGI [34] was 2.81 µM and the GI50 [35] was 3.34 µM. The TGI [35] was 92.7 µM, the GI50 [59] was 2.33 µM and the TGI [59] was 6.32 µM. It also gave a GI50 [36] of 2.19 µM, a TGI [36] of 7.29 µM and a GI50 [37] of 2.62 µM. The TGI [37] was 11.9 µM, the GI50 [39] was 1.64 µM and the TGI [39] was 3.31 µM. For the same compound, the GI50 [41] was 3.11 µM, the TGI [41] was 12.9 µM and the GI50 [43] was 4.64 µM. The TGI [43] was 17.4 µM, the GI50 [44] was 1.33 µM and the TGI [44] was 2.89 µM. For the same compound, the GI50 [45] was 2.23 µM, the TGI [45] was 4.38 µM and the GI50 [46] was 3.57 µM. The TGI [46] was 52.9 µM, the GI50 [47] was 2.29 µM and the TGI [47] was > 100 µM. The GI50 [48] was < 0.01 µM, the TGI [48] was 0.07 µM and the GI50 [49] was 1.81 µM. For the same compound, the TGI [49] was 11 µM, the GI50 [50] was 5.22 µM and the TGI [50] was 20.9 µM. It also gave a GI50 [60] of 0.156 µM, a TGI [60] of 3.4 µM and a GI50 [51] of 2.67 µM. The TGI [51] was 8.83 µM, the GI50 [52] was 3.28 µM and the TGI [52] was 11 µM. It also gave a GI50 [53] of 1.82 µM and a TGI [53] of 3.56 µM.
